Measured values reported in patent publication US20240294509A1, “PYRIDAZINONE COMPOUND AS PARP7 INHIBITOR” (Euregen Biopharma Co., Ltd., priority 2021, published 2024).

Tests used:
PARP7 = PARP7 (Homo sapiens (Human), UniProt Q7Z3E1)
Description: (§5) Experimental Principle: The inhibitory effect of the test substance on the enzymatic activity of PARP1/7 is assessed by using an Enzyme-Linked Immunosorbent Assay (ELISA).
(§6) (1) Pre-coating: Add 100 μL of a PBS buffer (10 mM NaH2PO4, 10 mM Na2HPO4, 150 mM NaCl, pH 7.4) containing 20 g/mL of histone to each well of a 96-well plate, and incubate at 4° C. overnight.
(§7) (3) Add 5 μL of the test substance or solvent to each well.
(§8) (4) Add 20 μL of(PARP1 or PARP7 (50 ng/well), and incubate at 30° C. for 1 hour.
(§9) (5) Add 50 μL of streptavidin-HRP to the reaction mixture, and incubate at 30° C. for 30 minutes.
(§10) (6) Finally, add 100 μL of a citrate buffer containing H2O2 and luminol (0.1 M, pH 5.4), and measure the luminescent signal using a microplate reader (Molecular Devices SpectraMax M5).
(§11) (7) Calculate the inhibition rate of PARP1 or PARP7 enzyme activity as [(control group−treatment group)/control group]×10000. Fit the dose-response data with standard dilutions using Prism GraphPad software and calculate the concentration required to achieve 5000 inhibition of PARP1 or PARP7 enzyme activity (IC50).

PARP1 = PARP1 (Homo sapiens (Human), UniProt P09874)
Description: as §5, §6, §7, §8, §9, §10, §11

NCI-H1373 cells = assay: Inhibitory effect on the proliferation of NCI-H1373 cells (CellTiter-Glo); type: cell-based; settings: Homo sapiens, 144 h, 6 days treatment
Text: 1. Experimental Principle: NCI-H1373 cells are a type of lung adenocarcinoma cells that overexpress PARP7.
2. Experimental Materials: NCI-H1373 cells were obtained from Nanjing Cobioer Biosciences Co., Ltd. CellTiter-Glo® (cell viability chemiluminescent assay reagent) was purchased from Promega (Catalog No. G7571). RPMI-1640 medium was obtained from ATCC (Catalog No. 30-2001). RPMI-1640 medium, penicillin/streptomycin antibiotics were purchased from WISENT. Fetal bovine serum was obtained from Biosera. The Nivo multimode reader was procured from PerkinElmer.
3. Experimental Method: NCI-H1373 cells were seeded in a white 96-well plate with 80 μL of cell suspension per well, containing 3000 NCI-H1373 cells. The cell plate was incubated overnight in a carbon dioxide (CO2) incubator.
The test compounds were serially diluted 5-fold to the 9th concentration, ranging from 2 mmol/L to 5.12 nmol/L, for a duplicate assay. 78 μL of culture medium was added to the intermediate plate, and then, according to the corresponding positions, 2 μL of each gradient-diluted compound was transferred to the intermediate plate. After thorough mixing, 20 μL of the compound solution was transferred to the cell plate. The compound concentration range in the cell plate ranged from 10 μmol/L to 0.0256 nmol/L. The cell plate was incubated in a CO2 incubator for 6 days.
Another cell plate was prepared, and the signal values were read on the day of dosing to obtain the maximum value referred to as Max in the following equation for data analysis. 25 μL of cell viability chemiluminescent assay reagent was added to each well of this cell plate, and it was incubated at room temperature for 10 minutes to stabilize the luminescent signal. Readings were taken using a multimode reader.
After 6 days of treatment, 25 μL of cell viability chemiluminescent assay reagent was added to each well of the cell plate, and it was incubated at room temperature for 10 minutes to stabilize the luminescent signal. Readings were taken using a multimode reader.
The IC50 value was determined by four-parameter curve fitting (obtained by using the “log(inhibitor) vs. response—Variable slope” model in GraphPad Prism).

[1] = Pharmacokinetic properties in SD rats after single intravenous injection and oral administration; type: in vivo; settings: SD male rats
Text: 1. Test purpose: to determine the pharmacokinetic characteristics of some of the example compound of the present invention in SD rats after single intravenous injection(IV) and oral administration(PO) by LC-MS/MS method.
2. Test material: the test drug is self-made from the example compounds of the present invention; Positive control compound RBN2397 purchased from Shanghai BioChemPartner Biotechnology Co., Ltd. SD male rats were obtained from the Laboratory Animal Management Department of Shanghai Family Planning Research Institute. Animal production license number (SCXK (Shanghai) 2018-0006).
Preparation of 0.5% methyl cellulose: 5 g of methyl cellulose were weighed and dissolved in 1000 mL of purified water.
Preparation of oral formulation: A required amount of test compound was weighed and dissolved in 0.5% methyl cellulose solution to obtain a suspension or solution of 0.5 mg/mL or 1.0 mg/mL.
Preparation of intravenous injection formulation: A required amount of test compound was weighed, and dissolved in 0.5 mL of dimethyl sulfoxide to prepare a solution of 4 mg/mL. 0.25 mL of the above solution was added into 0.5 mL of polyethylene glycol 15 hydroxystearate (solutol) and 4.25 mL of physiological saline to obtain a solution of 0.2 mg/mL.
Administration: SD male rats were orally administered (PO) after fasting overnight, and fed 4 hours after administration.
Sample Collection: blood was collected through jugular vein or other suitable vein, and 0.2 mL of blood was collected at each time point. Samples were placed into tubes containing ethylenediamine tetraacetic acid dipotassium salt and kept on ice before centrifugation. Within 1 hour after blood collection, the blood samples were centrifuged at 2-8° C. and 6800 g for 6 minutes and stored at −80° C. The time point for blood collection was 0.083, 0.25, 0.5, 1, 2, 4, 8 and 24 hours after intravenous administration, and 0.25, 0.5, 1, 2, 4, 6, 8 and 24 hours after oral administration.
The intravenous dosage was 1 mg/kg, and the pharmacokinetic parameters for oral administration were standardized to a 1 mg/kg dose.

[2] = Metabolic stability in dog liver microsomes; type: in vitro ADME; settings: pH 7.4, 1.00 μM compound, 0.5 mg/mL protein, read-out: intrinsic clearance, Clint
Description: (§1) 1. Experiment purpose: This study aims to determine the metabolic stability of selected compounds from the embodiments of the invention in liver microsomes of humans, dogs, monkeys, rats, and mice using the LC-MS/MS method.
(§2) Test compounds: The test drug is self-made from the example compounds of the present invention; Positive control compound RBN2397 purchased from Shanghai BioChemPartner Biotechnology Co., Ltd.
(§3) Liver microsomes obtained from Xenotech.
(§4) The incubation was carried out at 37° C. in a CO2 incubator. The reactions were terminated by adding 150 μL of cold acetonitrile at different time points (0, 5, 15, 30, and 45 minutes). The 96-well plate was shaken at 600 rpm for 10 minutes, followed by centrifugation at 6000 rpm for 15 minutes. The supernatant (80 μL) was mixed with 140 μL of pure water, and the remaining amount of the compound was determined using LC-MS/MS. The intrinsic clearance (Clint) was calculated using the formula Clint=k/liver microsomes protein concentration, where “k” is the linear regression slope of log compound remaining percentage against incubation time.

[3] = Metabolic stability in rat liver microsomes; type: in vitro ADME; settings: pH 7.4, 1.00 μM compound, 0.5 mg/mL protein, read-out: intrinsic clearance, Clint
Description: as §1, §2, §3, §4

[4] = Metabolic stability in human liver microsomes; type: in vitro ADME; settings: pH 7.4, 1.00 μM compound, 0.5 mg/mL protein, read-out: intrinsic clearance, Clint
Description: as §1, §2, §3, §4

[5] = rat, plasma, Intravenous injection, 1 mg/kg
[6] = rat, plasma, Oral gavage, standardized to a 1 mg/kg dose

PARP1, sequence (P09874 whole entry): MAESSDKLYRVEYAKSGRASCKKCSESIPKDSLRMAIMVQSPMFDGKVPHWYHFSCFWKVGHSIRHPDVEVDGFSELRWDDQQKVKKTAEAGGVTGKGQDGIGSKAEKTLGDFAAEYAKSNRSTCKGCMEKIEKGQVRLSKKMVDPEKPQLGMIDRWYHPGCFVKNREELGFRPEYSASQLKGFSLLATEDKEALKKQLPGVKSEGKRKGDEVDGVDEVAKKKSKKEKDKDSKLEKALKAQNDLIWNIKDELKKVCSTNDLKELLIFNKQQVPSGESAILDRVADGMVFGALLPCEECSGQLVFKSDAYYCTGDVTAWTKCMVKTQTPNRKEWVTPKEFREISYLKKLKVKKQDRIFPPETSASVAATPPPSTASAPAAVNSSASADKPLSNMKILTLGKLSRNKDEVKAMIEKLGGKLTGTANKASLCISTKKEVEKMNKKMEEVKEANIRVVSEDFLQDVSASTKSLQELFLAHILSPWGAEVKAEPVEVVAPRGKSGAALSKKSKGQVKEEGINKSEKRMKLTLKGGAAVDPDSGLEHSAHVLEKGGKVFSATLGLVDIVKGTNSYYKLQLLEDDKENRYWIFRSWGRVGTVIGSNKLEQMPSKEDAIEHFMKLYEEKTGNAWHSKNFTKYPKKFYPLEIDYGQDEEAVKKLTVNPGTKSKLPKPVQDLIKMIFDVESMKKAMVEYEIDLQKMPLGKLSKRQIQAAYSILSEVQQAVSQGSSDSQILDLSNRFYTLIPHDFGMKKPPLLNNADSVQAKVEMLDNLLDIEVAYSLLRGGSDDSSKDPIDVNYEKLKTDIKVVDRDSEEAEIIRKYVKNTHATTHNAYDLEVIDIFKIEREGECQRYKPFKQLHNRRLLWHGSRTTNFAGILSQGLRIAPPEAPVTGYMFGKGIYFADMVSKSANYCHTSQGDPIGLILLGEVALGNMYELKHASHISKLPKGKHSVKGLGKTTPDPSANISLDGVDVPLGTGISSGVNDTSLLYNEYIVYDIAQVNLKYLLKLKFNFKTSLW
PARP7, sequence (Q7Z3E1 whole entry): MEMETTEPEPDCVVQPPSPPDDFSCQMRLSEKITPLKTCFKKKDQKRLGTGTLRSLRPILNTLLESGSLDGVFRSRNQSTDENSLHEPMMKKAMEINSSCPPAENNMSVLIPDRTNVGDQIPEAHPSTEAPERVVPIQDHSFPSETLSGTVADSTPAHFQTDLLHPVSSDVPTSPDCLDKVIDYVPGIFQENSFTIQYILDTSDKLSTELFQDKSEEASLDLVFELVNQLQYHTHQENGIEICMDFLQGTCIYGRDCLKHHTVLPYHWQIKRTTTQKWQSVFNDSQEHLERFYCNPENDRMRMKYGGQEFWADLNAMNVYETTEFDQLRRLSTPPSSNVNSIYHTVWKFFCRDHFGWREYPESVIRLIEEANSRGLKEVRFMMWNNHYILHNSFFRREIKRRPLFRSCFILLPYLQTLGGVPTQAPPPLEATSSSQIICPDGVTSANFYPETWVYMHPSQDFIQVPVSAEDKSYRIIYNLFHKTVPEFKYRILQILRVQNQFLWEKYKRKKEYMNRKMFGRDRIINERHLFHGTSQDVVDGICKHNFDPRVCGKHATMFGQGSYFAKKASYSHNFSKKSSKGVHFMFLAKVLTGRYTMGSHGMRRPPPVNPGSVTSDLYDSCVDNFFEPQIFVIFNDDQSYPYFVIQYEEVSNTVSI

| Compound | IC50 (PARP7) [nM] | IC50 (PARP1) [nM] | further results |
| --- | --- | --- | --- |
| O=C(CC[C@@H]1C[C@H](F)CN1c1cc(C(F)(F)F)c(=O)[nH]n1)N1CCN(c2ncc(C(F)(F)F)cn2)CC1 [Compound 43] | 4 | 4 | – |
| O=C(CC[C@@H]1CC(F)(F)CN1c1cc(C(F)(F)F)c(=O)[nH]n1)N1CCN(c2ncc(C(F)(F)F)cn2)CC1 [Compound 23] | 3.2 | 9.7 | – |
| O=C([C@@H]1C[C@H](Oc2ccccc2)CN1c1cc(C(F)(F)F)c(=O)[nH]n1)N1CCN(c2ncc(C(F)(F)F)cn2)CC1 [Compound 66] | 4 | 427 | – |
| CO[C@@H]1C[C@@H](CCC(=O)N2CCN(c3ncc(C(F)(F)F)cn3)CC2)N(c2cc(C(F)(F)F)c(=O)[nH]n2)C1 [Compound 44] | 7 | 18 | – |
| O=C(CC[C@@H]1C[C@H](N2CCOCC2)CN1c1cc(C(F)(F)F)c(=O)[nH]n1)N1CCN(c2ncc(C(F)(F)F)cn2)CC1 [Compound 35] | 4.3 | 47 | – |
| CCO[C@H]1C[C@@H](CCC(=O)N2CCN(c3ncc(C(F)(F)F)cn3)CC2)N(c2cc(C(F)(F)F)c(=O)[nH]n2)C1 [Compound 36] | 3.8 | 14.4 | – |
| CO[C@@H]1C[C@@H](C(=O)N2CCN(c3ncc(C(F)(F)F)cn3)CC2)N(c2cc(C(F)(F)F)c(=O)[nH]n2)C1 [Compound 70] | – | – | IC50 (NCI-H1373 cells): 58.2 nM |
| O=C(CC[C@@H]1CCCCN1c1cc(C(F)(F)F)c(=O)[nH]n1)N1CCN(c2ncc(C(F)(F)F)cn2)CC1 [Compound 22] | 4.6 | 31.6 | – |
| O=C(CC[C@@H]1CCCN1c1cc(C(F)(F)F)c(=O)[nH]n1)N1CCN(c2ncc(C(F)(F)F)cn2)CC1 [Compound 6] | – | – | F ([1]; Oral gavage, oral bioavailability): 18.1%; AUC(0-inf) [1, 5]: 1380 ng·h/mL; Cmax [1, 5]: 1950 ng/mL; clearance [1, 5]: 12.2 mL/min/kg; half-life [1, 5]: 1.43 h; AUC(0-inf) [1, 6]: 248 ng·h/mL; Cmax [1, 6]: 30.4 ng/mL; CLint scaled at 1 μM [2]: 31.6 mL/min/kg; CLint scaled at 1 μM [3]: 137 mL/min/kg; IC50 (NCI-H1373 cells): 10 nM; CLint scaled at 1 μM [4]: 64.6 mL/min/kg |
| N[C@H]1C[C@@H](CCC(=O)N2CCN(c3ncc(C(F)(F)F)cn3)CC2)N(c2cc(C(F)(F)F)c(=O)[nH]n2)C1 [Compound 42] | 37 | 6 | – |
| O=C([C@@H]1C[C@H](Oc2ccccc2F)CN1c1cc(C(F)(F)F)c(=O)[nH]n1)N1CCN(c2ncc(C(F)(F)F)cn2)CC1 [Compound 67] | 43 | 12000 | – |
| O=C(CC[C@H]1CCCN1c1cc(C(F)(F)F)c(=O)[nH]n1)N1CCN(c2ncc(C(F)(F)F)cn2)CC1 [Compound 18] | 2.2 | 2.5 | – |
| O=C(CC[C@@H]1C[C@@H](O)CN1c1cc(C(F)(F)F)c(=O)[nH]n1)N1CCN(c2ncc(C(F)(F)F)cn2)CC1 [Compound 31] | 4.4 | 25.9 | – |
| O=C(CC[C@@H]1C[C@H](N2CCCC2)CN1c1cc(C(F)(F)F)c(=O)[nH]n1)N1CCN(c2ncc(C(F)(F)F)cn2)CC1 [Compound 38] | 5 | 36 | – |
